Data from patent US20260356804A1, “SODIUM CHANNEL BLOCKING COMPOUNDS, DERIVATIVES THEREOF, AND METHODS OF THEIR USE” (LATIGO BIOTHERAPEUTICS, INC., priority 2022, published 2026).
Like-named read-outs stand apart in the source and are kept apart here.

Assays:
human Nav1.8/β1 = biological target: T1, human Nav1.8/β1 (Homo sapiens, UniProt Q9Y5Y9); assay: Compound Profiling Human NaV1.8/β1 Cell Line—Sophion QPatch II Assay (automated patch clamp, stably transfected HEK293 cells); assay type: cell-based
T1 construct: host or cells: HEK293
T1 sequence (Q9Y5Y9 whole entry): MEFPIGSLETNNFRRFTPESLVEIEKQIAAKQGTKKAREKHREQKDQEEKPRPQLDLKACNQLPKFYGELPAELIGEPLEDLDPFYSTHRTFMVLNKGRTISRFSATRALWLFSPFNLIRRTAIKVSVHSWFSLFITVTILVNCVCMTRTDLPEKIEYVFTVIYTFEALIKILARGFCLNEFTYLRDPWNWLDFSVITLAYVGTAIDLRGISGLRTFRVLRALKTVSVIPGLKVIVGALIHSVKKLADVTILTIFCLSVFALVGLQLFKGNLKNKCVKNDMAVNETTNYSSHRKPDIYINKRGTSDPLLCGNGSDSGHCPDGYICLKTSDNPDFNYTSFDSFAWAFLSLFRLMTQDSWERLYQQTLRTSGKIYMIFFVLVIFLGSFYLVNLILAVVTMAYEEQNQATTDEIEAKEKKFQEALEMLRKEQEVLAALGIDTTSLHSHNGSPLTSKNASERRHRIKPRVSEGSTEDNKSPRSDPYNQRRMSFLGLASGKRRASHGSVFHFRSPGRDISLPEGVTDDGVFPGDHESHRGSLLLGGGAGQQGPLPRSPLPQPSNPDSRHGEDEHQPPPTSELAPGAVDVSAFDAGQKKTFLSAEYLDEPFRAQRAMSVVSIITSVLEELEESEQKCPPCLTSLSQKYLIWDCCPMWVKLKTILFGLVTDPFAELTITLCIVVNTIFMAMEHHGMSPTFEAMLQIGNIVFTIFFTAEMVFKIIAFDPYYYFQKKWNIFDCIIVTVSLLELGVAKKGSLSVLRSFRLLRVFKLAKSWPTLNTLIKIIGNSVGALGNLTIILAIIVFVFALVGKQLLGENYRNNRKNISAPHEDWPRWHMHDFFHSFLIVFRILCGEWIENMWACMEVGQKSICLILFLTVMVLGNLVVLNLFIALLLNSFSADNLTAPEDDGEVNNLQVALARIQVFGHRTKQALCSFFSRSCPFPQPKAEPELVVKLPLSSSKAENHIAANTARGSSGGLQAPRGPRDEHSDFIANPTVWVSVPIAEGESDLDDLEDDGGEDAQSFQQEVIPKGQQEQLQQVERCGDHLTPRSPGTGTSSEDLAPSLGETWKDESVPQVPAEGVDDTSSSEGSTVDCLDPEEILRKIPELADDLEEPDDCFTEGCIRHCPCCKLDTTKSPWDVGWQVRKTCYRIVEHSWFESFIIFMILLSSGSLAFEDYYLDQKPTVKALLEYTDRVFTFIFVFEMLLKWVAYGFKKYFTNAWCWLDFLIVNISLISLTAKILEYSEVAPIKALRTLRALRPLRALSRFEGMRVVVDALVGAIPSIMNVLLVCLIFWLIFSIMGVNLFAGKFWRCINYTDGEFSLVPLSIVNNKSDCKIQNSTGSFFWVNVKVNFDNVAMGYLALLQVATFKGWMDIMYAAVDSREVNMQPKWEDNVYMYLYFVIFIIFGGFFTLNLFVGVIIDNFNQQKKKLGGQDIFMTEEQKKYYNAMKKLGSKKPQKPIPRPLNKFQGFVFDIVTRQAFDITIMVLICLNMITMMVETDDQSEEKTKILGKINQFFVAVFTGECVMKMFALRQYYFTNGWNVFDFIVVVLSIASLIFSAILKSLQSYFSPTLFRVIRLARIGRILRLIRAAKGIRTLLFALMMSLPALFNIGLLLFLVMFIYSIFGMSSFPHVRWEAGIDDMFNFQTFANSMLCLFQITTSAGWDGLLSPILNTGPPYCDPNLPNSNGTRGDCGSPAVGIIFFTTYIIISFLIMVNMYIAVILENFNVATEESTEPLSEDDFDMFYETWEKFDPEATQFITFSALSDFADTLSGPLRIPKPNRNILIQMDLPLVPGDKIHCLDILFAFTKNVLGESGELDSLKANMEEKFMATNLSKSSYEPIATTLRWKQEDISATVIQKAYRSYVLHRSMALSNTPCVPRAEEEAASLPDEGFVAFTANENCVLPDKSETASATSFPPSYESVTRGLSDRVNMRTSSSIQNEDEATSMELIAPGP
T1 sequence (Q07699 19-218 partner): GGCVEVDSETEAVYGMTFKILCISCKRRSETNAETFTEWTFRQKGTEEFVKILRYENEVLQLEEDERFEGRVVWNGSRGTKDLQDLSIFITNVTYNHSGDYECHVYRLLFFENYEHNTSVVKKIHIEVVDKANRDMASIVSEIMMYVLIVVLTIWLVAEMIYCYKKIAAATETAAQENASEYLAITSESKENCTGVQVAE
Procedure: Compounds were tested on recombinant human Nav1.8/β1 stably transfected HEK293 (Eurofins, CYL3025, St. Charles, MO) cells using the QPatch II system (Sophion Bioscience A/S, Ballerup—Denmark), an automated patch clamp device. Cells were cultured at 37° C./5% CO2 in DMEM/F-12 supplemented with 10% fetal bovine serum, 1× Non-Essential Amino Acids, and selection antibiotics (0.625 μg/mL Puromycin, 400 μg/mL Geneticin, and 100 μg/mL Hygromycin). One or two days prior to recording, cells were moved to a lower temperature 30° C./5% CO2 incubator to increase surface expression of the channels. On the day of the recordings, cells in culture dishes were washed twice with Ca^2+—Mg^2+ free DPBS and treated with Detachin (Genlantis, San Diego) for 3 minutes and then resuspended in Serum Free Medium (EX-CELL® ACF CHO Medium for Cell Culture (Sigma-Aldrich) supplemented with 0.04 mg/mL soybean trypsin Inhibitor and 25 mM HEPES (all components supplied by Sigma-Aldrich, St. Louis, MO) and allowed to recover for a minimum of 20 minutes in the onboard QStirrer. All experiments were performed at ambient temperature. Intracellular solution contained (mM): CsCl, 50; CsF, 90; MgCl2, 2; EGTA, 5; HEPES, 10; pH adjusted to 7.2 with CsOH. Extracellular solution contained (mM): NaCl, 137; KCl, 4; CaCl2), 3.8; MgCl2, 1; HEPES, 10; Glucose, 10; pH adjusted to 7.4 with NaOH. [LEFT OUT].
Compounds were tested in an interleaved manner across two cohorts of wells to develop an aggregate 8-point concentration response curve. Final concentrations include 0.1% DMSO and 0.03% pluronic Acid. In general, the concentration range spans a range from 0.01-300 nM. Compounds were diluted 1:10 with extracellular solution within their respective cohort. DMSO (0.1% by volume) served as a vehicle control to ascertain assay performance.
(§1) Whole cell patch clamp recordings were conducted according to Sophion standard procedure for QPatch II®. Cells were held at a holding potential of −120 mV. A depolarizing step to 10 mV for 30 ms was applied to elicit inward Na^+ currents. Inter-sweep interval was 15 sec. Following establishment of the whole-cell configuration in extracellular solution, cells were washed twice in extracellular solution containing 0.1% DMSO and 0.03% pluronic acid to stabilize the baseline current. Compounds were then applied by the QPatch II system into each well in an ascending manner within cohort and the current was recorded for five minutes for each concentration. Percent of current remaining was determined by taking the average of the last 5 sweeps within each concentration and normalizing to the latest pre-compound saline period. The potency (IC50) values of the compounds were only assessed against resting state block. Wells whose initial sodium current magnitude were below 2 nA or whole cell resistance fell below 100 MΩ were excluded from analysis.
as §1, with “MO” for “MΩ”, “analysis. […]” for “analysis.”

human Nav1.8/b3 = biological target: T2, human Nav1.8/b3 (Homo sapiens, UniProt Q9Y5Y9); assay: Compound Profiling Human NaV1.8/β3 Cell Line—SyncroPatch384PE Assay (automated patch clamp, stably transfected CHO cells); assay type: cell-based; details: Nav1.8/b3 CHO cells, third set of compounds
T2 construct: expressed in transfected cells; host or cells: CHO
T2 sequence (Q9Y5Y9 whole entry): as the sequence (Q9Y5Y9 whole entry) above
T2 sequence (Q9NY72 23-215 partner): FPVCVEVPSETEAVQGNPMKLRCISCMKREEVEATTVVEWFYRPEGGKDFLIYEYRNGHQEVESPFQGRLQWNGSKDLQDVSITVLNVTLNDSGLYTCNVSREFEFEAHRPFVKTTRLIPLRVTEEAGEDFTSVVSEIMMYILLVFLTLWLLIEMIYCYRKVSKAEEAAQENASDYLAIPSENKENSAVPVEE

[1] = P1 (IC50, resting state block), P1 measurement, resting state block, holding potential −120 mV
[2] = P2 (IC50, inactivated state block), P2 measurement, inactivated state block, inactivation step −35 mV 10 sec
[3] = P1, resting state block, Nav1.8/β1 HEK293 cells, holding potential −120 mV, first set of compounds, read-out: P1 (IC50, resting state block)

IC50 (human Nav1.8/β1) [nM]	Compound	other results
5 to 50	Cc1nc(F)ccc1Oc1ncc(C2CCCC2)c(C)c1C(=O)Nc1ccnc([S@](C)(=N)=O)c1 [Example 86C]	IC50 (human Nav1.8/b3; [1]): 5 to 50 nM; IC50 (human Nav1.8/b3; [2]): 5 to 50 nM
5 to 50	CNCCCS(=N)(=O)c1cccc(NC(=O)c2c(Oc3ccc(F)nc3C)ncc(C(F)(F)F)c2C)c1 (stereo not drawn) [Example 74C]	
5 to 50	Cc1nc(F)ccc1Oc1ncc(C2CCCC2)c(C)c1C(=O)Nc1cccc([S@](C)(=N)=O)c1 [Example 87C]	IC50 (human Nav1.8/b3; [1]): 5 to 50 nM; IC50 (human Nav1.8/b3; [2]): 5 to 50 nM
	Cc1nc(F)ccc1Oc1ncc(C(F)(F)F)c(C)c1C(=O)Nc1cccc(S2(=O)=NC(=O)CC2)c1 (single isomer, unassigned) [Example 31D, 2-((6-fluoro-2-methylpyridin-3-yl)oxy)-4-methyl-N-(3-(1-oxido-3-oxo-4,5-dihydro-3H-1l6-isothiazol-1-yl)phenyl)-5-(trifluoromethyl)nicotinamide]	IC50 (human Nav1.8/β1; P1, resting state block, Nav1.8/β1 HEK293 cells, holding potential −120 mV, fourth set of compounds, read-out: P1 (IC50, resting state block)): 50 to 100 nM
> 200	Cc1c(C(F)(F)F)cnc(Oc2ccc(F)nc2CO)c1C(=O)Nc1cccc([S@@](C)(=N)=O)c1 [Example 83C]	
5 to 50	CNCCCS(=N)(=O)c1cccc(NC(=O)c2c(Oc3ccc(F)cc3C)ncc(C(F)(F)F)c2C)c1 (stereo not drawn) [Example 56C]	
	Cc1cc(F)ncc1Oc1cc(C(F)(F)F)c(Cl)cc1C(=O)Nc1cccc([S@](C)(=N)=O)c1 [Example 22A]	IC50 (human Nav1.8/β1; [3]): 50 to 100 nM
5 to 50	Cc1nc(F)ccc1Oc1ncc(C(F)(F)F)c(C)c1C(=O)Nc1cccc([S@@](=N)(=O)CCCN(C)C)c1 [Example 72C]	
100 to 200	Cc1nc(F)ccc1Oc1ncc(C(F)(F)F)c(C)c1C(=O)Nc1cccc([S@](=N)(=O)CCCO)c1 [Example 69C]	
	Cc1nc(F)ccc1Oc1cc(C(F)(F)F)ccc1C(=O)Nc1ccnc([S@@](C)(=N)=O)c1 [Example 18A]	IC50 (human Nav1.8/β1; [3]): > 200 nM
5 to 50	COc1cc(C#N)ccc1Oc1cc(C(F)(F)F)c(Cl)cc1C(=O)Nc1ccnc([S@](C)(=N)=O)c1 [Example 12A, (R)-5-chloro-2-(4-cyano-2-methoxyphenoxy)-N-(2-(S-methylsulfonimidoyl)pyridin-4-yl)-4-(trifluoromethyl)benzamide]	
5 to 50	Cc1nc(F)ccc1Oc1ncc(C(F)(F)F)c(C)c1C(=O)Nc1ccc(F)c(S(C)(=O)=NCCN)c1 (stereo not drawn) [Example 88C]	IC50 (human Nav1.8/b3; [1]): < 5 nM; IC50 (human Nav1.8/b3; [2]): < 5 nM
> 200	Cc1nc(F)ccc1Oc1ncc(C(F)(F)F)c(C)c1C(=O)Nc1cccc(S(=N)(=O)CCC(C)(C)O)c1 (stereo not drawn) [Example 42C, 2-((6-fluoro-2-methylpyridin-3-yl)oxy)-N-(3-(3-hydroxy-3-methylbutylsulfonimidoyl)phenyl)-4-methyl-5-(trifluoromethyl)nicotinamide]	
5 to 50	Cc1nc(F)ccc1Oc1ncc(C(F)(F)F)c(C)c1C(=O)Nc1cccc([S@](=N)(=O)CCN(C)C)c1 [Example 76C]	
100 to 200	Cc1nc(F)ccc1Oc1ncc(C(F)(F)F)c(C)c1C(=O)Nc1cncc([S@](C)(=N)=O)c1 [Example 61C]	
5 to 50	Cc1nc(F)ccc1Oc1ncc(C(F)(F)F)c(C)c1C(=O)Nc1cccc(S(=N)(=O)CC(C)(C)N)c1 (stereo not drawn) [Example 53C]	
> 200	Cc1nc(F)ccc1Oc1cc(C(F)(F)F)ccc1C(=O)Nc1ccc(F)c([S@@](C)(=N)=O)c1 [Example 29A]	
50 to 100	CC[S@@](=N)(=O)c1cccc(NC(=O)c2c(Oc3ccc(F)nc3C)ncc(C(F)(F)F)c2C)c1 [Example 82C]	
> 200	Cc1c(C(F)(F)F)cnc(Oc2ccc(F)nc2CO)c1C(=O)Nc1cccc([S@](C)(=N)=O)c1 [Example 89C]	
5 to 50	CNCCCS(=O)(=O)c1cccc(NC(=O)c2c(Oc3ccc(F)nc3C)ncc(C(F)(F)F)c2C)c1 [Example 71C]	
> 200	Cc1nc(F)ccc1Oc1ncc(C(F)(F)F)c(C)c1C(=O)N(C)c1cccc([S@](C)(=N)=O)c1 [Example 46C, (R)-2-((6-fluoro-2-methylpyridin-3-yl)oxy)-N,4-dimethyl-N-(3-(S-methylsulfonimidoyl)phenyl)-5-(trifluoromethyl)nicotinamide]	
5 to 50	Cc1nc(F)ccc1Oc1ncc(C(F)(F)F)c(C)c1C(=O)Nc1cccc(S(=N)(=O)CCC(C)(C)N)c1 (stereo not drawn) [Example 52C]	
100 to 200	Cc1nc(F)ccc1Oc1ncc(C(F)(F)F)c(C)c1C(=O)Nc1cccc([S@@](=N)(=O)CCCO)c1 [Example 68C]	
5 to 50	Cc1nc(F)ccc1Oc1ncc(C(F)(F)F)c(C)c1C(=O)Nc1cccc([S@](=N)(=O)CCCN(C)C)c1 [Example 73C]	
